Data reported in PMC9181795, “Ibuprofen Favors Binding of Amyloid-β Peptide to Its Depot, Serum Albumin” (International Journal of Molecular Sciences, 2022).
Where two headings read alike, the source gives them in different places.

Assays:
mouse models of AD = test system: mouse models of AD; set-up: method as in 6 sources, ref [28]–[35] = [28]; PMID 15817521; doi:10.1093/brain/awh452; 28. Heneka M.T. Sastre M. Dumitrescu-Ozimek L. Hanke A. Dewachter I. Kuiperi C. O’Banion K. Klockgether T. Van Leuven F. Landreth G.E. Acute treatment with the PPARgamma agonist pioglitazone and ibupr || [29]; PMID 18374906; doi:10.1016/j.brainres.2008.01.095; 29. McKee A.C. Carreras I. Hossain L. Ryu H. Klein W.L. Oddo S. LaFerla F.M. Jenkins B.G. Kowall N.W. Dedeoglu A. Ibuprofen reduces Abeta, hyperphosphorylated tau and memory deficits in Alzheimer mice || [30]; PMID 19679126; doi:10.1016/j.expneurol.2009.07.032; 30. Choi J.K. Jenkins B.G. Carreras I. Kaymakcalan S. Cormier K. Kowall N.W. Dedeoglu A. Anti-inflammatory treatment in AD mice protects against neuronal pathology Exp. Neurol. 2010 223 377 384 10.101 || [31]; PMID 27190010; doi:10.1093/brain/aww117; 31. Woodling N.S. Colas D. Wang Q. Minhas P. Panchal M. Liang X. Mhatre S.D. Brown H. Ko N. Zagol-Ikapitte I. Cyclooxygenase inhibition targets neurons to prevent early behavioural decline in Alzheime || [32]; PMID 12930788; doi:10.1523/JNEUROSCI.23-20-07504.2003; 32. Yan Q. Zhang J. Liu H. Babu-Khan S. Vassar R. Biere A.L. Citron M. Landreth G. Anti-inflammatory drug therapy alters beta-amyloid processing and deposition in an animal model of Alzheimer’s diseas ||| ref [28],[29],[30],[32],[33],[34],[35] = [28]; PMID 15817521; doi:10.1093/brain/awh452; 28. Heneka M.T. Sastre M. Dumitrescu-Ozimek L. Hanke A. Dewachter I. Kuiperi C. O’Banion K. Klockgether T. Van Leuven F. Landreth G.E. Acute treatment with the PPARgamma agonist pioglitazone and ibupr || [29]; PMID 18374906; doi:10.1016/j.brainres.2008.01.095; 29. McKee A.C. Carreras I. Hossain L. Ryu H. Klein W.L. Oddo S. LaFerla F.M. Jenkins B.G. Kowall N.W. Dedeoglu A. Ibuprofen reduces Abeta, hyperphosphorylated tau and memory deficits in Alzheimer mice || [30]; PMID 19679126; doi:10.1016/j.expneurol.2009.07.032; 30. Choi J.K. Jenkins B.G. Carreras I. Kaymakcalan S. Cormier K. Kowall N.W. Dedeoglu A. Anti-inflammatory treatment in AD mice protects against neuronal pathology Exp. Neurol. 2010 223 377 384 10.101 || [32]; PMID 12930788; doi:10.1523/JNEUROSCI.23-20-07504.2003; 32. Yan Q. Zhang J. Liu H. Babu-Khan S. Vassar R. Biere A.L. Citron M. Landreth G. Anti-inflammatory drug therapy alters beta-amyloid processing and deposition in an animal model of Alzheimer’s diseas || [33]; PMID 10908610; doi:10.1523/JNEUROSCI.20-15-05709.2000; 33. Lim G.P. Yang F. Chu T. Chen P. Beech W. Teter B. Tran T. Ubeda O. Ashe K.H. Frautschy S.A. Ibuprofen suppresses plaque pathology and inflammation in a mouse model for Alzheimer’s disease J. Neuro ||| ref [28] = [28]; PMID 15817521; doi:10.1093/brain/awh452; 28. Heneka M.T. Sastre M. Dumitrescu-Ozimek L. Hanke A. Dewachter I. Kuiperi C. O’Banion K. Klockgether T. Van Leuven F. Landreth G.E. Acute treatment with the PPARgamma agonist pioglitazone and ibupr ||| ref [32] = [32]; PMID 12930788; doi:10.1523/JNEUROSCI.23-20-07504.2003; 32. Yan Q. Zhang J. Liu H. Babu-Khan S. Vassar R. Biere A.L. Citron M. Landreth G. Anti-inflammatory drug therapy alters beta-amyloid processing and deposition in an animal model of Alzheimer’s diseas ||| ref [33],[34] = [33]; PMID 10908610; doi:10.1523/JNEUROSCI.20-15-05709.2000; 33. Lim G.P. Yang F. Chu T. Chen P. Beech W. Teter B. Tran T. Ubeda O. Ashe K.H. Frautschy S.A. Ibuprofen suppresses plaque pathology and inflammation in a mouse model for Alzheimer’s disease J. Neuro || [34]; PMID 15688088; doi:10.1038/sj.npp.1300668; 34. Morihara T. Teter B. Yang F. Lim G.P. Boudinot S. Boudinot F.D. Frautschy S.A. Cole G.M. Ibuprofen suppresses interleukin-1beta induction of pro-amyloidogenic alpha1-antichymotrypsin to ameliorate ||| ...; details: cited from earlier work
[1] = set-up: method as in PMID 4202799; details: at therapeutic levels; ref [24]; cited from earlier work

Protocol for HSA–Aβ interaction: To ensure the monomeric state of Aβ, the non-covalently bound Aβ molecules were thoroughly washed from the chip surface until stabilization of the SPR signal using several water solutions: 2% sodium dodecyl sulfate (SDS), 100 mM HCl, 20 mM ethylenediaminetetraacetic acid (EDTA) pH 8.0 with 1% SDS.
The freeze-dried Aβ samples were dissolved in neat TFA at a concentration of 0.5–1 mg/mL, followed by sonication for 30 s and TFA evaporation using an Eppendorf Concentrator plus. The dried Aβ samples were dissolved in DMSO at a concentration of 2 mg/mL and stored at −20 °C.
The rest of the activated amine groups on the chip surface were blocked by 1 M ethanolamine solution. […] The double-referenced SPR sensograms were analyzed using the heterogeneous ligand model (Equation (1)), assuming presence of two populations of a ligand (L1 and L2) that bind an analyte molecule (A):(1) ka1L1+ A⇌L1Akd1Kd1 ka2L2+ A⇌L2Akd2Kd2 where ka and kd refer to kinetic association and dissociation constants, respectively; Kd1 and Kd2 are equilibrium dissociation constants. The equilibrium and kinetic dissociation/association constants were evaluated for each analyte concentration using Bio-Rad ProteOn Manager™ v.3.1 software (Hercules, CA, USA), followed by averaging of the resulting values (n = 3–4; standard deviations are indicated).

## CC(C)Cc1ccc(C(C)C(=O)O)cc1 (centres unmarked) [IBU, 2-[4-(2-methylpropyl)phenyl]propanoic acid]
Mouse models of AD; mouse models of AD, ref [28]–[35]
  neuroprotective effects of IBU intake: suppression of the inflammatory processes, reduction in the Aβ sprand tau protein depositions, and lowering of the cognitive and memory deficits
Mouse models of AD; ref [28]
  mechanism ascribed to reduced Aβ deposition: downregulation of β-secretase 1 and COX-2
Mouse models of AD; ref [32]
  mechanism ascribed to reduced Aβ deposition: reduction in Aβ42 production
Mouse models of AD; ref [33],[34]
  mechanism ascribed to reduced Aβ deposition: inhibition of interleukin-1β and its downstream target α1-antichymotrypsin
Mouse models of AD; ref [35]
  mechanism ascribed to reduced Aβ deposition: attenuation of NADPH oxidase activation and reactive oxygen species production
Mouse models of AD; several mouse AD models, ref [28],[29],[30],[32],[33],[34],[35]
  brain deposition of Aβ upon treatment with IBU: reduction in brain deposition of Aβ
HSA–Aβ interaction
  effect of IBU on HSA affinity to Aβ compared with serotonin: lower than the effect for serotonin
[1]
  bound to blood plasma proteins: 99%
